Assay results as given in publication PMC11302733, “Bioactivity of synthetic peptides from Ecuadorian frog skin secretions against Leishmania mexicana, Plasmodium falciparum, and Trypanosoma cruzi” (Microbiology Spectrum, 2024).
Like-named read-outs stand apart in the source and are kept apart here. No end group written: not given here.

Tests used:
[1] = Cytotoxicity, resazurin reduction assay; assay type: cell-based, murine; conditions: mouse
Description: (§1) RAW 264.7 murine macrophages and Macaca mulatta kidney cells (LLC-MK2) were cultured in 75-cm^2 flasks with 10-mL Dulbecco’s Modified Eagle’s Medium (DMEM) supplemented with 10% fetal bovine serum and 1% penicillin/streptomycin (DMEM-10) medium. Culture conditions were 37°C, 5% CO2, and 95% relative humidity. RAW 264.7 cells were rinsed with PBS, detached with a cell scraper, and passaged every 96 h. LL-MCK2 were subcultured weekly, at 1:4 ratio, via trypsinization.
(§2) The toxicity of the studied AMPs over LLC-MK2 and RAW 264 cells was determined via a resazurin (RZN) reduction assay ([42]). Briefly, 2 × 10^4 cells/well were seeded in DMEM-10 in 96-well plates. Twenty-four hours later, culture medium was removed, and 10 twofold serial dilutions (100.0–0.195 µM) of each AMP in 200-µL volume were placed in duplicate wells. The plate was placed on the incubator in the dark at 37°C and 5% CO2. Ten microliters of 3-mM RZN sodium salt in PBS per well was added, and the plate was incubated for 24 h. Finally, the fluorescence was measured (530- to 560-nm excitation and 590-nm emission wavelengths). Three independent assays were performed for each peptide.

[2] = system: P. falciparum NF54; assay type: cell-based, Plasmodium falciparum; conditions: NF54, 72 h
Description: (§3) P. falciparum was cultured in human O + erythrocytes in Roswell Park Memorial Institute medium 1640, supplemented with 25-mM HEPES buffer, 10-mM glucose, 2-mM glutamine, and O + human plasma. Parasites were cultured under low-oxygen atmosphere (5% O2, 5% CO2, and 90% N2) ([34]) and maintained in fresh human erythrocytes suspended at 4% hematocrit in complete medium at 37°C. Stock cultures were subpassaged every 3–4 days by transfer of infected red cells to a flask containing complete medium and uninfected erythrocytes.
(§4) In vitro sensitivity to peptides was tested using a previously described SYBR green I fluorescence-based method ([39], [40]). Assays were set up in 96-well plates with twofold peptide dilutions in 150-μL total volume and 1.5% (vol/vol) final red blood cell concentration. Stock solutions of each peptide were prepared in DMSO. Experiments were started at an initial parasitemia of 0.5% (80% rings) synchronous parasite-infected red blood cells. Plates were incubated for 72 h at 37°C in an atmosphere of 5% CO2, 5% O2, and 90% N2. The SYBR green I dye-lysis mixture (l:100) was added to the parasites in black plates that were incubated at room temperature for an hour in the dark. The plates were then read using a fluorescence plate reader at excitation and emission wavelengths of 480 and 535 nm, respectively. Experiments were performed in duplicate wells. Three independent assays were performed for each peptide.

[3] = system: P. falciparum TM90C2B (C2B); assay type: cell-based, Plasmodium falciparum; conditions: TM90C2B (C2B, 72 h)
Description: as §3, §4

[4] = system: Leishmania mexicana strain M379 promastigotes; assay type: cell-based; conditions: for SI L. mexicana: RAW 264.7 CC50/parasite IC50; for IC50: promastigotes 1 × 10^6/well, SDM without FBS, 48 h at 25°C, MTT, three independent assays in triplicate, read-out: IC50 L. mexicana, with 95% confidence interval
Description: L. mexicana promastigote stock cultures were maintained in USHMARU biphasic medium [blood agar slant overlayed with 3 mL of Schneider’s Drosophila medium (SDM), containing 10% fetal bovine serum (FBS)] at 25°C. Promastigotes were collected by centrifugation and washed with PBS, and culture medium was replaced every 2 days. Every 4 days, the parasites were transferred to a new tube and to a 25-cm^2 tissue culture flask containing 10 mL of monophasic medium (SDM + 10% FBS + 1% penicillin/streptomycin). If present, rosettes were disrupted by passing the culture through 10-mL syringes with 27G needles.
Parasite viability was measured colorimetrically via 3-(4,5-dimethylthiazol-2-yl)-2,5-diphenyltetrazole bromide tetrazolium salt (MTT) reduction. Promastigotes were placed in 96-well conical-bottom plates in SDM + 1% penicillin/streptomycin without FBS, at a density of 1 × 10^6/well. Untreated parasites (growth control), 1-µM amphotericin B diluted in DMSO (positive control), 0.25% DMSO (negative control), and each of the peptides at a final concentration of 0.1, 0.5, 1.0, 5.0, and 10.0 µM were included in triplicate wells. Plates were incubated at 25°C for 48 h. Subsequently, 20-µL 10% MTT was added per well. Plates were incubated for 2 h in the dark at the same temperature and centrifuged at 4,000 rpm for 10 min, and the supernatant was removed. Formazan crystals were diluted with 50-µL DMSO, and absorbances (A570–630) were read ([37], [38]). Three independent assays were performed for each peptide.

[5] = Cytotoxicity, resazurin reduction assay; assay type: cell-based; conditions: Macaca mulatta, LLC-MK2 cells (Macaca mulatta kidney cells), 100.0–0.195 µM, three independent assays in duplicate wells, read-out: IC50 (CC50) Llc-mk2, with 95% confidence interval
Description: as §1, §2

[6] = system: T. cruzi trypomastigotes (Tulahuen, Tula β-gal); assay type: cell-based, Trypanosoma cruzi; conditions: trypomastigotes (Tulahuen, Tula β-gal, 4 h)
Description: T. cruzi trypomastigote culture was performed as reported previously ([35], [36]). LLC-MK2 cell monolayers were infected with 5 × 10^5 trypomastigotes in 10-mL DMEM supplemented with 2% FBS and 1% penicillin/streptomycin (DMEM-2), for 48 h at 37°C, 5% CO2 and 98% relative humidity. Parasites were subsequently removed by rinsing with PBS, and 10-mL fresh DMEM-2 was added. Five days post-infection, trypomastigotes were harvested from the culture for the trypanocidal activity assays.
Wells containing parasites not exposed to peptides and treated with 0.1% Triton served as 100% lysis reference. Plates were incubated in the dark at 37°C and 5% CO2 for 4 h, and absorbance was read at 590 nm. Experiments were performed in duplicate wells. Three independent assays were performed for each peptide.

[7] = system: intracellular T. cruzi amastigotes (Tula β-gal) in LLC-MK2 cells; conditions: read-out: IC50 T. cruzi amastigotes, with 95% confidence interval, 96 h, CPRG read-out, three independent assays
Description: Leishmania mexicana strain M379, P. falciparum reference clones NF54 (chloroquine-sensitive, isolated from a patient at an airport in the Netherlands) and TM90C2B (C2B) (chloroquine, mefloquine, and atovaquone resistant, from Thailand) and T. cruzi, β-galactosidase-expressing, Tulahuen strain parasites (C4 clone; +lacZ, henceforth abbreviated as Tula β-gal) ([33]) were employed in the study.
LLC-MK2 cells, 2 × 10^4/well, were seeded and allowed to attach overnight to 96-well plates. he medium was removed and cells were infected with 1 × 10^5 parasites in DMEM-2 for 24 h. Cell monolayers were washed four times with PBS, and serial dilutions of AMPs (100.0- to 0.195-µM range) in DMEM-2 without phenol red were added to duplicate wells. Wells containing infected cells not exposed to peptides served as parasite growth reference. The infection was allowed to proceed for 96 h. Subsequently, lysis solution was added to each well to a final concentration of 100-µM CPRG and 0.1% Triton and incubated for 2 h. Absorbance was measured at 590 nm ([41]). Three independent assays were performed for each peptide.
Half-maximal inhibitory concentration (IC50) and half-maximal cytotoxic concentration (CC50) with 95% confidence intervals in GraphPad Prism software (v.9.2.0., non-linear regression with curve fitting [model: log (inhibitor) vs response (three parameters)]. The selectivity index (SI) was determined by dividing the CC50 value of RAW 264.7 cells by the IC50 of the parasites.

[8] = system: Candida albicans ATCC 10231; assay type: cell-based; conditions: ATCC 10231, 16 h
Description: (§5) The minimum inhibitory concentration (MIC) of CZS-4 over Escherichia coli American Type Culture Collection (ATCC) 25922, Staphylococcus aureus ATCC 29213, and Candida albicans ATCC 10231 was determined, as previously described ([28], [30], [31]). In brief, overnight cultures of each microorganism were subcultured in Muller-Hinton Broth (MHB) until reaching 1 × 10^6 CFU/mL for bacteria and 1 × 10^5 CFU/mL for yeast. Peptide serial dilutions in dimethylsulfoxide (DMSO), ranging from 0.4 to 209.4 µM were prepared, and 2 µL of each peptide dilution was added to 198-µL diluted bacterial or yeast culture in a 96-well sterile plate (with five replicates). Sterile MHB and microbial culture with DMSO were negative controls. Plates were incubated for 16 h at 37°C. Microorganism growth was measured at 600 nm.

[9] = system: Escherichia coli ATCC 25922; assay type: cell-based; conditions: ATCC 25922, 16 h
Description: as §5

[10] = system: Staphylococcus aureus ATCC 29213; assay type: cell-based; conditions: ATCC 29213, 16 h
Description: as §5

[11] = system: red blood cell; assay type: cell-based
Description: Hemolytic activity was determined using 200 µL of 4% red blood cell solution incubated with 200 µL of serial dilutions peptide (0.4–209.4 µM) in phosphate-buffered saline (PBS) 1× (five replicates). Negative controls contained PBS instead of peptide; positive controls contained 2% vol/vol Triton X-100 to yield complete hemolysis. Assays were incubated at 37°C for 2 h, and samples were centrifuged at […] for 5 min. Two-hundred microliters of supernatant was transferred to a 96-well plate and absorbance was measured at 550 nm.

[12] = RAW 264.7 macrophages, resazurin reduction, 24 h, 100.0–0.195 µM, three independent assays in duplicate wells, read-out: IC50 (CC50) Raw 264.7, with 95% confidence interval

Substance “ASWKVFLKNIGKAAGKAVLNSVTDMVNQ-NH2 [DRS-SP2]” has a CC50 at 24 h [1] of 3.14 µM, an IC50 [2] of 12.1 µM and an IC50 [3] of 15.3 µM. The “SI L. mexicana” value [4] was 5.15 and the IC50 [4] was 0.61 µM.

GFLDIVKGVGKVALGAVSKLF-NH2 [CZS-1] gave a CC50 at 24 h [5] of 3.17 µM, a CC50 at 24 h [1, 12] of 2.38 µM and an IC50 [6] of 2.87 µM. It also gave an IC50 [7] of 16.7 µM, an IC50 [2] of 31.2 µM and an IC50 [3] of 16.8 µM. For the same substance, the “SI L. mexicana” value [4] was 4.41 and the IC50 [4] was 0.54 µM.

In the case of GFLDTLKNIGKTVGRIALNVLT-NH2 [PTS-1], the CC50 at 24 h [5] is reported as 80.1 µM, the CC50 at 24 h [1, 12] is reported as 2.52 µM and the IC50 [6] is reported as 1.42 µM. It also gave an IC50 [7] of 30.2 µM, an IC50 [2] of 52.6 µM and an IC50 [3] of 24.9 µM. The “SI L. mexicana” value [4] was 25.20 and the IC50 [4] was 0.1 µM.

Work on GFLDVIKHVGKAALSVVSHLINE-NH2 [CZS-4] yielded an MIC [8] of 52.36 µM, an MIC [9] of 13.09 µM and an MIC [10] of 26.18 µM. For the same substance, the Hemolysis ([11]; 128 µM) was 13%, the Hemolysis ([11]; 2 h) was “less than 9.1%” and the “Hemolysis (%)” value ([11]; 2 h, 13.09 µM) was 1.2%. The “Hemolysis (%)” value ([11]; 2 h, 26.18 µM) was 9.1%, the “Hemolysis (%)” value ([11]; 2 h, 104.73 µM) was 28.5% and the “Hemolysis (%)” value ([11]; 2 h, 209.46 µM) was 36.3%. For the same substance, the CC50 at 24 h [5] was 70.7 µM, the CC50 at 24 h [1, 12] was 48 µM and the IC50 [6] was 1.55 µM. It also gave an IC50 [7] of 30.7 µM, an IC50 [2] of 13.9 µM and an IC50 [3] of 4.87 µM. The “SI L. mexicana” value [4] was 532.89 and the IC50 [4] was 0.09 µM.

GFLDVLKGVGKAALGAVTHLINQ-NH2 [CZS-16] showed a CC50 at 24 h [5] of 5.59 µM, a CC50 at 24 h [1, 12] of 4.4 µM and an IC50 [6] of 18.7 µM. For the same substance, the IC50 [7] was 38.3 µM, the IC50 [2] was 36.8 µM and the IC50 [3] was 34.4 µM.
